Here are results for 17 compounds from ChEMBL document CHEMBL1135094, “Potent, orally active inhibitors of lipoprotein-associated phospholipase A(2): 1-(biphenylmethylamidoalkyl)-pyrimidones” (Bioorg Med Chem Lett, 2002).

The target in the assay is T1, Platelet-activating factor acetylhydrolase (Homo sapiens, UniProt Q13093).
T1 sequence (Q13093 whole entry): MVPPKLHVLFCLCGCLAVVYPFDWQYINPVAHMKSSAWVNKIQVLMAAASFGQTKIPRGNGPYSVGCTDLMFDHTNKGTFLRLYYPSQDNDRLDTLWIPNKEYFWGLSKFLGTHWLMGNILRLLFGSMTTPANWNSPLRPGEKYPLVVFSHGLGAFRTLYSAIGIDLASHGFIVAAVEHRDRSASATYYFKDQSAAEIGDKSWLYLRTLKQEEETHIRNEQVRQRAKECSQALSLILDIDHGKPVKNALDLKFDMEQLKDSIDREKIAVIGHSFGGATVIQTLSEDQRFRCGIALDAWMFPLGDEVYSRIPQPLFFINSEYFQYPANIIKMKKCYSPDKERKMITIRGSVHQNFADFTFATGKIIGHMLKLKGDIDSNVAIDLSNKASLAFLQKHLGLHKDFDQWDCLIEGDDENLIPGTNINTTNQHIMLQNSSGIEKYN
In words: Inhibitory activity against recombinant human Lp-PLA2 (Lp-PLA2).
A word on the IC50: it is the point on the concentration scale where inhibition reaches its midpoint. As for `COc1ncc(Cc2cn(CCCC(=O)N(C)Cc3ccc(-c4ccc(Cl)cc4)cc3)c(SCc3ccc(F)cc3)nc2=O)cn1`, the IC50 stood at 5 nM.

As to `COc1ncc(Cc2cn(CC(=O)N(C)Cc3ccc(-c4ccc(F)cc4)cc3)c(SCc3ccc(F)cc3)nc2=O)cn1`, the IC50 amounted to 0.6 nM.

`Cn1cc(Cc2cn(CCCC(=O)NCc3ccc(-c4ccc(F)cc4)cc3)c(SCc3ccc(F)cc3)nc2=O)cn1`: the IC50 worked out at 4 nM.

Turning to `O=C(Cn1cc(Cc2cncnc2)c(=O)nc1SCc1ccc(F)cc1)NCc1ccc(-c2ccccc2)cc1`, the IC50 was 4 nM.

On to `COc1ncc(Cc2cn(CCCC(=O)NCc3ccc(-c4ccccc4)cc3)c(SCc3ccc(F)cc3)nc2=O)cn1`, for which the IC50 was 4 nM.

Take `CN(Cc1ccc(-c2ccc(Cl)cc2)cc1)C(=O)Cn1cc(Cc2cnc(N(C)C)nc2)c(=O)nc1SCc1ccc(F)cc1`: the IC50 came out at 0.8 nM.

On to `CN(Cc1ccc(-c2ccc(Cl)cc2)cc1)C(=O)Cn1cc(Cc2cnc(N3CCOCC3)nc2)c(=O)nc1SCc1ccc(F)cc1`, for which the half-maximal inhibitory concentration (IC50) was determined as 1 nM.

On to `CCn1cc(Cc2cn(CC(=O)N(C)Cc3ccc(-c4ccc(Cl)cc4)cc3)c(SCc3ccc(F)cc3)nc2=O)cnc1=O`, for which the IC50 stood at 0.5 nM.

For `COc1ncc(Cc2cn(CCCC(=O)NCc3ccc(-c4ccc(Cl)cc4)cc3)c(SCc3ccc(F)cc3)nc2=O)cn1`, the half-inhibitory concentration (IC50) was determined as 4 nM.

Regarding `O=C(Cn1cc(Cc2cncnc2)c(=O)nc1SCc1ccc(F)cc1)NCc1ccccc1-c1ccccc1`, the IC50 came out at 194 nM.

With `CN(Cc1ccc(-c2ccccc2)cc1)C(=O)Cn1cc(Cc2cncnc2)c(=O)nc1SCc1ccc(F)cc1`, the IC50 came to 8 nM.

For the compound `Cn1cc(Cc2cn(CCCC(=O)NCc3ccc(-c4ccccc4)cc3)c(SCc3ccc(F)cc3)nc2=O)cn1`, the IC50 amounted to 5 nM.

With `CN(Cc1ccc(-c2ccc(Cl)cc2)cc1)C(=O)Cn1cc(Cc2cnc(C(F)(F)F)nc2)c(=O)nc1SCc1ccc(F)cc1`, the IC50 was 5 nM.

As to `COc1ncc(Cc2cn(CC(=O)NCc3ccc(-c4ccc(Cl)cc4)cc3)c(SCc3ccc(F)cc3)nc2=O)cn1`, the IC50 was 0.5 nM.

For `COc1ncc(Cc2cn(CC(=O)N(C)Cc3ccc(-c4ccc(C(F)(F)F)cc4)cc3)c(SCc3ccc(F)cc3)nc2=O)cn1`, the IC50 came out at 0.2 nM.

As for `O=C(Cn1cc(Cc2cncnc2)c(=O)nc1SCc1ccc(F)cc1)NCc1cccc(-c2ccccc2)c1`, the IC50 was 24 nM.

On to `CN(Cc1ccc(-c2ccc(F)cc2)cc1)C(=O)CCCn1cc(Cc2cnn(C)c2)c(=O)nc1SCc1ccc(F)cc1`, for which the IC50 came to 8 nM.
